Test results reported in ChEMBL document CHEMBL4433230, “Revisiting microtubule targeting agents: α-Tubulin and the pironetin binding site as unexplored targets for cancer therapeutics” (Bioorg Med Chem Lett, 2019).

Tests used:
A549 = test: Cytotoxicity against human A549 cells assessed as reduction in growth after 4 days by HCS assay; type: functional; settings: A549, 96 h
DC3F = test: Cytotoxicity against hamster DC-3F cells assessed as reduction in growth after 4 days by HCS assay; type: functional; settings: Cricetulus griseus, 96 h
EL4 = test: Cytotoxicity against C57BL/6 mouse EL4 cells assessed as reduction in growth after 3 days; type: functional; settings: C57BL/6, EL4, 72 h
NCI-H69 = test: Cytotoxicity against human H69 cells assessed as reduction in growth after 7 days by MTT assay; type: functional; settings: NCI-H69, 168 h
[1] = Cytotoxicity against human H69/Txl cells assessed as reduction in growth after 7 days by MTT assay; type: functional; settings: 168 h
[2] = Cytotoxicity against human H69/VDS cells assessed as reduction in growth after 7 days by MTT assay; type: functional; settings: 168 h
[3] = Toxicity in CDF1-SLC mouse injected with mouse P388 cells assessed as change in body weight at 0.78 mg/kg, ip treated for 5 days and measured on day 1 and 10 (reference value: 5.3g); type: organism-based; settings: in vivo, 120 h
HeLa = test: Cytotoxicity against human HeLa cells assessed as reduction in growth; type: functional
HL-60 = test: Cytotoxicity against human HL60 cells assessed as reduction in growth after 24 hrs by MTT assay; type: functional; settings: HL-60, 24 h
[4] = Cytotoxicity against rat KNRK cells assessed as reduction in growth; type: functional
K562 = test: Cytotoxicity against human K562 cells assessed as reduction in growth after 4 days by MTT assay; type: functional; settings: K562, 96 h
K562/Adr = test: Cytotoxicity against human K562/ADR cells assessed as reduction in growth after 4 days by MTT assay; type: functional; settings: 96 h
MCF7 = test: Cytotoxicity against human MCF7 cells assessed as reduction in growth after 3 days by MTT assay; type: functional; settings: MCF7, 72 h
MDA-MB-231 = test: Cytotoxicity against human MDA-MB-231 cells assessed as reduction in growth after 4 days by HCS assay; type: functional; settings: MDA-MB-231, 96 h
P388 [5] = test: Cytotoxicity against mouse P388 cells assessed as reduction in growth after 24 hrs by MTT assay; type: functional; settings: P388, 24 h
T98G = test: Cytotoxicity against human T98G cells assessed as reduction in growth after 4 days by MTS assay; type: functional; settings: 96 h
[6] = Cytotoxicity against hamster VCRd5L cells assessed as reduction in growth after 4 days by HCS assay; type: functional; settings: Cricetulus griseus, 96 h
Mus musculus = test: Immunosuppressive activity in […] mouse injected with C57BL/6 mouse EL4 cells assessed as cytotoxic T cells generation by measuring specific lysis level at 5 mg/kg, ip treated for 2 to 15 days and measured on day 16 by gamma scintillation counter method (reference value: 18.6 +/- 4.15%); type: functional
[7] = Toxicity in CDF1-SLC mouse injected with mouse P388 cells assessed as change in body weight at 1.56 mg/kg, ip treated for 5 days and measured on day 1 and 10 (reference value: 5.3g); type: organism-based; settings: in vivo, 120 h
[8] = Toxicity in CDF1-SLC mouse injected with mouse P388 cells assessed as change in body weight at 3.13 mg/kg, ip treated for 5 days and measured on day 1 and 10 (reference value: 5.3g); type: organism-based; settings: in vivo, 120 h
[9] = Toxicity in CDF1-SLC mouse injected with mouse P388 cells assessed as change in body weight at 6.25 mg/kg, ip treated for 5 days and measured on day 1 and 10 (reference value: 5.3g); type: organism-based; settings: in vivo, 120 h
P388 [10] = test: Antitumor activity in CDF1-SLC mouse injected with mouse P388 cells assessed as mean survival time at 0.78 mg/kg, ip treated for 5 days (reference value: 11.2 +/- 0.84 days); type: functional
P388 [11] = test: Antitumor activity in CDF1-SLC mouse injected with mouse P388 cells assessed as mean survival time at 1.56 mg/kg, ip treated for 5 days (reference value: 11.2 +/- 0.84 days); type: functional
P388 [12] = test: Antitumor activity in CDF1-SLC mouse injected with mouse P388 cells assessed as mean survival time at 3.13 mg/kg, ip treated for 5 days (reference value: 11.2 +/- 0.84 days); type: functional
P388 [13] = test: Antitumor activity in CDF1-SLC mouse injected with mouse P388 cells assessed as mean survival time at 6.25 mg/kg, ip treated for 5 days (reference value: 11.2 +/- 0.84 days); type: functional

SMILES: C/C=C/C[C@H](C)[C@@H](OC)[C@@H](C)[C@H](O)C[C@H]1OC(=O)C=C[C@H]1CC [PIRONETIN]
- GI50 (A549): 7.5 nM
- GI50 (DC3F): 9.5 nM
- GI50 (EL4): 15 nM
- GI50 (NCI-H69): 17.5 nM
- GI50 [1]: 11.5 nM
- GI50 [2]: 20.3 nM
- Activity [3]: 3.7 g
- GI50 (HeLa): 30 nM
- GI50 (HL-60): 20 nM
- GI50 [4]: 30 nM
- GI50 (K562): 17.3 nM
- GI50 (K562/Adr): 16 nM
- GI50 (MCF7): 5 nM
- GI50 (MDA-MB-231): 4.6 nM
- GI50 (P388 [5]): 100 nM
- GI50 (T98G): 7.5 nM
- GI50 [6]: 31 nM
- Activity (Mus musculus): 7.4%
- Activity [7]: 0.5 g
- Activity [8]: -0.1 g
- Activity [9]: -2.6 g
- MST (P388 [10]): 11.2 days
- MST (P388 [11]): 11.7 days
- MST (P388 [12]): 13.3 days
- MST (P388 [13]): 14.3 days
